The subject of assay [1] is HeLa. Put plainly: HeLa proliferation. It counts as cell-based. The conditions noted are these: Homo sapiens, read-out: HeLa proliferation EC50 (nM) DG.
The target in assay [2] is CDK2/cyclin E (Homo sapiens, UniProt P24941). Briefly: CDK2/cyclin E Flashplate test in 96-well format. The following applies: read-out: CDK2 IC50. It counts as biochemical. On the procedure: 1. Protocol CDK2/cyclin E:
Purification of the CDK2/cyclin E-(His)6 Complex by IMAC (Immobilized Metal Affinity Chromatography):
Two recombinant baculoviruses bearing the human sequences coding, respectively, for CDK2 and cyclin E (the latter comprising a C-terminal hexahistidine tag) are used to coinfect insect Sf21 cells. Two to three days after the start of coinfection, the cells are harvested by centrifugation and then stored at −40° C. until the time of use. After thawing and mechanical lysis of the cells, the complex present in the lysis supernatant is purified by affinity chromatography on nickel (IMAC), and stored at −80° C.
CDK2/cyclin E Flashplate Test in 96-Well Format
A format in 96-well plates coated with streptavidin is used to test the activity of the compounds on the kinase activity of CDK2/cyclin E.
To perform this test, the biotinylated peptide substrate, a fragment of the pRb protein (biotinyl-[…]-OH) is dissolved at a concentration of 1 mM in kinase buffer (HEPES/NaOH 50 mM, NaCl 1 mM, MgCl2 5 mM, pH 7.5) in order to constitute a stock solution stored at −20° C. in the form of 110 μl aliquots. On the day of the experiment, an aliquot of this solution is thawed and diluted in kinase buffer containing 1 mM of dithiothreitol, and added to the buffer extemporaneously, in order to obtain a concentration of 14.3 μM. 70 μl of this solution are added to each well of the Flashplate in order to obtain a final substrate concentration of 10 μM during the enzymatic reaction, performed in a final volume of the reaction medium of 100 μl (cf. below).
Intermediate dilutions of inhibitors (products of the invention) at various concentrations are prepared in DMSO from stock solutions at 10 mM in separate tubes. 1000 μM, 333.3 μM, 111.1 μM, 37.03 μM, 12.35 μM, 4.11 μM and 1.37 μM dilutions are thus prepared. 1 μl of each of these solutions (or 1 μl of DMSO for the controls) is transferred into the wells of the test plate.
Into each well are then added 19 μl of a solution of a mixture of adenosine triphosphate (ATP) and of ATPy^33P in the kinase buffer at a concentration of 5.26 μM of ATP total and 52.6 μCi/ml of ^33P. The enzymatic reaction is triggered by addition of 10 μl per well of a solution of CDK2/cyclin E at 200 nM in the kinase buffer containing 1 mM of dithiothreitol (or 10 μl of kinase buffer containing 1 mM of dithiothreitol for the reaction blanks).
After addition of all the reagents, the plate is incubated at 30° C. with orbital stirring at 650 rpm.
When the incubation is complete, the plate is washed three times with 300 μl per well of PBS (phosphate-buffered saline, pH=7.4, without calcium or magnesium, reference 10010-015, Gibco BRL). The incorporation of ^33P into the peptide is quantified by scintillation counting using a Packard Topcount.NXT machine. The inhibitory activity of the products of the invention is evaluated by measuring the inhibitory concentration that allows a 50% reduction in the enzymatic activity (IC50).

Assay [3] concerns the target CDK4/cyclin D1 (Homo sapiens, UniProt P11802). Briefly: CDK4/cyclin D1 Flashplate test in 96-well format. In kind it is biochemical. How it is done: 2. CDK4/cyclin D1 Protocol:
Purification of the CDK4-HA/cyclin D1-(His)6 Complex by IMAC (Immobilized Metal Affinity Chromatography):
Two recombinant baculoviruses bearing the human sequences coding, respectively, for CDK4-HA (C-terminal fusion with the hemaglutinin tag) and for cyclin D1-(His)6 are used to coinfect insect Sf9 cells. Sixty hours after the start of the coinfection, the cells are harvested by centrifugation and then frozen at −20° C. until the time of use.
CDK4/cyclin D1 Flashplate Test in 96-Well Format
A test in 96-well “Flashplate” plates coated with streptavidin is used to evaluate the inhibition of the CDK4/cyclin D1 kinase complex by the products of the invention. To perform this test, the biotinylated peptide substrate, a fragment of the pRb protein (biotinyl-[…]-amide) is dissolved at a concentration of 2 mM in kinase buffer (HEPES/NaOH 50 mM, NaCl 1 mM, MgCl2 5 mM, pH 7.5) in order to constitute a stock solution stored at −20° C. in the form of 110 μl aliquots. On the day of the experiment, an aliquot of this solution is thawed and diluted in kinase buffer containing 1 mM of dithiothreitol, and added to the buffer extemporaneously, in order to obtain a final peptide concentration of 2.571 μM. 70 μl of this solution are added to each well of the Flashplate in order to obtain a final substrate concentration of 1.8 μM during the enzymatic reaction, performed in a final volume of the reaction medium of 100 μl (cf. below). Intermediate dilutions of inhibitors (products of the invention) at various concentrations are prepared in DMSO from stock solutions at 10 mM in separate tubes. 1000 μM, 333.3 μM, 111.1 μM, 37.03 μM, 12.35 μM, 4.11 μM and 1.37 μM dilutions are thus prepared. 1 μl of each of these solutions (or 1 μl of DMSO for the controls) is then transferred into the wells of the test plate. Into each well are then added 19 μl of a solution of a mixture of adenosine triphosphate (ATP) and of ATPy^33P in the kinase buffer at a concentration of 5.26 μM of ATP total and 78.9 μCi/ml of ^33P. The enzymatic reaction is triggered by addition of 10 μl per well of a solution of CDK4/cyclin D1 at 250 nM in the kinase buffer containing 1 mM of dithiothreitol (or 10 μl of kinase buffer containing 1 mM of dithiothreitol for the reaction blanks).
After addition of all the reagents, the test plate is incubated at 30° C. with orbital stirring at 650 rpm. After the incubation, the plate is washed three times with 300 μl per well of PBS (phosphate-buffered saline, pH=7.4, without calcium or magnesium, reference 10010-015, Gibco BRL). The incorporation of ^33P into the substrate peptide is quantified by scintillation counting using a Packard Topcount.NXT machine. The inhibitory activity of the products of the invention is evaluated by measuring the inhibitory concentration that allows a 50% reduction in the enzymatic activity (IC50).

pIC50: −log10 of the molar value. Counter-ions that a name gives are not always drawn. A value given as a limit tells only on which side of the number the result lay.

Chain of CDK4/cyclin D1 (P11802 whole entry): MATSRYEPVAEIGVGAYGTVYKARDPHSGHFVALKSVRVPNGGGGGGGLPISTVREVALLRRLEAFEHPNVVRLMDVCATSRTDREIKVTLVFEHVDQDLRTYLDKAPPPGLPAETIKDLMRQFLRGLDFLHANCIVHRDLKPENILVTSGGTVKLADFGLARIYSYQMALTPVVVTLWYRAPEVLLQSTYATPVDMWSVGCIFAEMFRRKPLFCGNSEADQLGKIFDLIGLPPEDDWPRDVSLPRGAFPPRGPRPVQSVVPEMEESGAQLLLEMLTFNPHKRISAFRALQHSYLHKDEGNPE
Chain of CDK4/cyclin D1 (P24385 whole entry partner): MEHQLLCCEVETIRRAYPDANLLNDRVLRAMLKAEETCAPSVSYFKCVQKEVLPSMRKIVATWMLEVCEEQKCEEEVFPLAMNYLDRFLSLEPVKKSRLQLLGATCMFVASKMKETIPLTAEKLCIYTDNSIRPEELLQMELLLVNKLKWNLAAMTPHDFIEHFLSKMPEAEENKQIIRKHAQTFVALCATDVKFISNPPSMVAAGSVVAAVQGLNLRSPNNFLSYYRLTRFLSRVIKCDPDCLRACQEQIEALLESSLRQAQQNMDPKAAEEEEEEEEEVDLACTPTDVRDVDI

One may read the pIC50 as the IC50 on a negative log10 scale, so that one unit is a factor of ten. Regarding `O=C(Nc1nc2ccc(OS(=O)(=O)c3ccc(F)cc3)cc2s1)C1CC1` [Example 7, 4-fluorobenzenesulfonic acid 2-(cyclopropane-carbonylamino)benzothiazol-6-yl ester], the EC50 in assay [1] came to 1580 nM. Moreover, the pIC50 in assay [2] was 6.91; in assay [3] it was less than 5.00.

Regarding `O=C(Nc1nc2ccc(OS(=O)(=O)c3ccc(NC4CCCC4)cc3)cc2s1)C1CC1` [Example 8, 4-cyclopentylaminobenzenesulfonic 2-(cyclo-propanecarbonylamino)benzothiazol-6-yl ester], the EC50 in assay [1] turned out to be 631 nM. Further, the results for the pIC50 in assay [2] and in assay [3] were 7.07 and 6.05, respectively.

`O=C(Nc1nc2ccc(OS(=O)(=O)c3ccc(NCCCCn4cnc(-c5cccnc5)c4)cc3)cc2s1)C1CC1` [Example 13, 4-[4-(4-pyrid-3-ylimidazol-1-yl)butylamino]-benzenesulfonic 2-(cyclopropanecarbonylamino)benzothiazol-6-yl ester]: the EC50 in assay [1] turned out to be 841 nM. Further, the pIC50 in assay [2] was 6.17; in assay [3] it was 5.16.

Consider `CC(C)NCCNc1ccc(S(=O)(=O)Oc2ccc3nc(NC(=O)CCCCCCCN)sc3c2)cc1` [Example 21, 4-(2-isopropylaminoethylamino)benzenesulfonic acid 2-(8-aminooctanoylamino)benzothiazol-6-yl ester hydrochloride], for which the EC50 in assay [1] was 2460 nM. The pIC50 is 6.64 in assay [2] and 6.27 in assay [3].

Consider `CC(C)(O)CNc1ccc(S(=O)(=O)Oc2ccc3nc(NC(=O)CCCCCCCN)sc3c2)cc1` [Example 22d, 4-(2-Hydroxy-2-methyl-propylamino)benzene-sulfonic acid 2-(8-amino-octanoylamino)benzo-thiazol-6-yl ester hydro-chloride], for which, in assay [1], the EC50 was 5360 nM. Also, the results for the pIC50 in assay [2] and in assay [3] were 7.16 and 6.15, respectively.

Turning to `CC(C)NCCNc1ccc(S(=O)(=O)Oc2ccc3nc(NC(=O)CCC4CCNCC4)sc3c2)cc1` [Example 24, 4-(2-Isopropylaminoethylamino)benzenesulfonic acid 2-(3-piperid-4-ylpropionylamino)benzothiazol-6-yl ester hydrochloride], the EC50 in assay [1] was more than 12500 nM. In addition, the pIC50 in assay [2] was 6.06; in assay [3], 5.78.

Turning to `O=C(CCC1CCNCC1)Nc1nc2ccc(OS(=O)(=O)c3ccc(NCCCn4ccnc4)cc3)cc2s1` [Example 25a, 4-(3-Imidazol-1-ylpropyl-amino)benzenesulfonic acid 2-(3-piperid-4-ylpropionyl-amino)benzothiazol-6-yl ester hydrochloride], the EC50 in assay [1] is more than 12500 nM. The pIC50 in assay [2] was 6.44; in assay [3] it was 5.77.

As to `CCNCCNc1ccc(S(=O)(=O)Oc2ccc3nc(NC(=O)CCC4CCNCC4)sc3c2)cc1` [Example 25b, 4-(2-Ethylaminoethyl-amino)-benzenesulfonic acid 2-(3-piperid-4-yl-propionyl-amino)-benzo-thiazol-6-yl ester hydrochloride], the EC50 in assay [1] was 9960 nM. For the same molecule, the pIC50 in assay [2] was 5.23; in assay [3], 5.39.

In the case of `O=C(CCC1CCNCC1)Nc1nc2ccc(OS(=O)(=O)c3ccc(NCCNCCO)cc3)cc2s1` [Example 25c, 4-[2-(2-Hydroxyethyl-amino)-ethylamino] benzenesulfonic acid 2-(3-piperid-4-ylpropionyl-amino)benzothiazol-6-yl ester hydrochloride], the EC50 in assay [1] is more than 12500 nM. Also, the pIC50 in assay [2] was 5.58; in assay [3], 5.41.

As for `CC(C)CNc1ccc(S(=O)(=O)Oc2ccc3nc(NC(=O)CC4CCNCC4)sc3c2)cc1` [Example 28, 4-isobutylaminobenzenesulfonic acid 2-(2-piperid-4-ylacetylamino)benzothiazol-6-yl ester hydrochloride], in assay [1], the EC50 came to 1330 nM. In addition, the pIC50 in assay [2] was 6.58; in assay [3] it was 6.40.

On to `CC(C)CNc1ccc(S(=O)(=O)Oc2ccc3nc(NC(=O)CCC4CCNCC4)sc3c2)cc1` [Example 29a, 4-Isobutylaminobenzenesulfonic acid 2-(3-piperid-4-ylpropionyl-amino)benzothiazol-6-yl ester hydrochloride], for which, in assay [1], the EC50 is 1830 nM. Besides, the pIC50 in assay [2] is 6.59; in assay [3] it was 6.24.

Take `NCCCCCCCC(=O)Nc1nc2ccc(OS(=O)(=O)c3cccs3)cc2s1` [Example 33f, Thiophene-2-sulfonic acid 2-(8-amino-octanoylamino)benzothiazol-6-yl ester; compound with trifluoroacetic acid]: the pIC50 is 5.74 in assay [2] and 5.15 in assay [3].

As for `CC(C)N(CCNc1ccc(S(=O)(=O)Oc2ccc3nc(NC(=O)C4CNC4)sc3c2)cc1)C(C)C` [Example 39, 4-(2-diisopropylaminoethylamino)benzenesulfonic acid 2-[(azetidine-3-carbonyl)amino]benzothiazol-6-yl ester], the pIC50 in assay [2] was 5.51; in assay [3], 5.63.

Turning to `CC(C)N(CCNc1ccc(S(=O)(=O)Oc2ccc3nc(NC(=O)CC4CCNCC4)sc3c2)cc1)C(C)C` [Example 42, 4-(2-diisopropylaminoethylamino)benzenesulfonic acid 2-(2-piperid-4-ylacetylamino)benzothiazol-6-yl ester], the pIC50 is 5.94 in assay [2] and 6.69 in assay [3].

In the case of `CC(C)(O)CNc1ccc(S(=O)(=O)Oc2ccc3nc(NC(=O)CCC4CCNCC4)sc3c2)cc1` [Example 84, 4-(2-hydroxy-2-methylpropylamino)benzene-sulfonic acid 2-(3-piperidin-4-ylpropionylamino)benzothiazol-6-yl ester hydrochloride], the pIC50 was 6.66 in assay [2] and 6.17 in assay [3].

(Values after patent publication US7632952B2, “Benzothiazoles and the use thereof as medicaments” (Aventis Pharma S.A., priority 2004, dated 2009).)
